Reference: the pKa sets of Baltruschat and Czodrowski (2020)

Conditions: basic group

Compound | pKa
NCC(O)c1ccccc1 (stereo not given) | 8.94
Clc1cc2cccnc2c2ncccc12 | 4.22
O=Cc1ccncc1 | 4.63
[NH3+]CC(=O)NCCc1c[nH]cn1 | 6.76
CN(C)c1ccc[nH+]c1 | -1.91
OCCCCc1ccccn1 | 5.83
Fc1ccc2[nH]cnc2c1 | 5.11
CC(C)CCCC(C)N (stereo not given) | 10.3
CSc1cccc2ncccc12 | 4.5
C1CNCC[NH2+]CCN1 | 6.97
COc1cccc(C(=O)CCN2CCOCC2)c1 | 7.1
c1ccc(C2=NCCN2)nc1 | 8.98
C(=C\c1ccncc1)/c1ccccc1 | 5.97
CCN(CC)CCC(C)=O | 9.25
Cc1ccn(-c2cccc[nH+]2)n1 | -3.9
CCCCCCNCCC(=O)[O-] | 10.6
c1nc(NC2CCCCC2)c2[nH]cnc2n1 | 4.2
Cc1cnc2c(cc(C)c3c(C)ccnc32)c1C | 6.45
Nc1ccnc2cc(Cl)ccc12 | 8.22
Cn1ncc2cncnc21 | 2.5
CN(C)c1ccc(/N=N/c2ccncc2)cc1 | 5.8
c1ccc2cnncc2c1 | 3.47
Cc1ccc2c(c1)c1c3c(nccn32)CCC1 | 6.24

Compound | pKa
CCN(CC)CC(=O)Nc1cc(C)ccc1C | 7.92
NC(=O)Cc1cccnc1 | 4.72
CCOC(=O)c1cnc2cc3c(cc2c1OCC)OCO3 | 4.09
CN1[C@@H](CC(=O)c2ccccc2)CCC[C@H]1C[C@@H](O)c1ccccc1 | 8
Nc1cc[nH+]c2c1ncn2CCOCP(=O)(O)O | 0.05
C[NH+](C)CCCNc1ccnc2c([N+](=O)[O-])cccc12 | 6.91
Nc1ccc(S(=O)(=O)Nc2cccnn2)cc1 | 1.3
Cc1cnc2c(ccc3cccnc32)c1 | 5
C=C(C(=O)O[C@H]1C[C@@H]2[C@@H]3O[C@@H]3[C@H](C1)N2C)c1ccccc1 | 7.72
NCCCCC#CC#CCCC(=O)[O-] | 10.5
CCCCCN(CC(O)CC)CC(O)CC (stereo not given) | 9.2
CC1=CN(C)CC1C (stereo not given) | 9.6
Cc1nc(C)c(C)nc1C | 3.36
O=P(C1CCCCC1)(C1CCCCC1)C1CCCCC1 | 5.04
CCC1CSC(C(C)C)=N1 (stereo not given) | 5.28
O=C([O-])c1nccc2ccccc12 | 4.97
Nc1ccc2cccc([N+](=O)[O-])c2c1 | 2.86
NC(=O)c1cncc2ccccc12 | 3.8
NC(c1ncc[nH]1)c1ncc[nH]1 | 6.49
COc1ccc(-c2nc3ncccc3[nH]2)c(OC)c1 | 4.63
CCC(C)N(C)C (stereo not given) | 10.4
CC[C@H]1CN2CCc3cc(OC)c(OC)cc3[C@@H]2C[C@@H]1CC=O | 8.11
NNc1nncc2ccccc12 | 7.25

Compound | pKa
N/C(CC/C(N)=N/O)=N\O | 5.97
CCc1ccc(C(=O)[O-])nc1 | 5.86
c1ccc2nc3ccccc3nc2c1 | 1.31
NCCCc1ccccc1 | 10.3
Clc1ccnc(-c2ccccn2)c1 | 3.8
CN(C)c1cccc(Cl)c1 | 3.83
CCCCNCCC#N | 8.3
Nc1ccnc(-c2cc(Cl)ccn2)c1 | 7.4
CN(C)c1ccccc1C(=O)[O-] | 8.46
Cc1ccncc1 | 6.15
Nc1ncnc2[nH]cnc12 | 4.26
CCC(N)(CC)CC | 10.9
C#CCCCN | 10.2
C=C(C)C(=O)OCCN | 8.7
CN(C)/C=N/c1ccccc1O | 7.41
O=[N+]([O-])c1ccc([O-])c(CN2CCOCCOCCOCCOCC2)c1 | 9.69
CN1C[C@H](C(=O)[O-])C[C@@H]2c3cccc4[nH]cc(c34)C[C@@H]21 | 8.57
CCN(N)CC | 7.63
CNCC#N | 5.26
Nc1ccc([N+](=O)[O-])c(F)c1 | -0.3
CCOCCn1c(CN2CCC[NH+](CCCCn3cccn3)CC2)nc2ccccc21 | 4.9
COc1cccc(OC)c1-c1nc2cnccc2[nH]1 | 6.34
C[NH+]1CCN(C(c2ccccc2)c2ccc(Cl)cc2)CC1 (stereo not given) | 2.43

Compound | pKa
CCN(CC)Cc1cccc(C)c1O | 8.19
c1ccc2c3c([nH]c2c1)CNCC3 | 8.4
Cc1ccc(CN)cc1N | 9.77
Cc1cc([N+](=O)[O-])ccc1N | 1.97
Cn1c(CO)nc2ccccc21 | 4.36
COc1ccc(-c2cn3cccnc3n2)c(OC)c1 | 4.34
CC(C)N(CCc1ccccc1)CCc1ccccc1 | 10
CCN(CC)Cc1cccc(C)c1[O-] | 10.9
CC(C)c1cccnc1 | 5.72
CN(C)c1ccc(/N=N/c2cccc[nH+]2)cc1 | 2
CCN(CC)CC(O)CO (stereo not given) | 9.77
NCCCc1ccccc1O | 9.51
CSc1ccnc2ccccc12 | 5.81
c1ccc(Cn2ccnc2)cc1 | 6.66
C[C@@H](CN)c1ccccc1 | 9.94
CCN(CC)/N=C(\N)CC[Si](C)(C)C | 10.7
NC(Cc1ccncc1)C(=O)[O-] (stereo not given) | 9.22
CC(CCN(C)C)NN (stereo not given) | 9.23
Cc1n[nH]c2c(NCc3ccccc3)ncnc12 | 4.95
CN1CCCN(C)Cc2ccccc2OCCOc2ccccc2C1 | 10.1
NCC(=O)NCC(=O)[O-] | 8.31
